Data reported in US20260233024A1, “IRIDIUM COMPLEX, PHOTOSENSITIZER, AND COMPOSITION FOR PHOTODYNAMIC THERAPY” (UNIST(ULSAN NATIONAL INSTITUTE OF SCIENCE AND TECHNOLOGY), priority 2022, published 2026).
Like-named read-outs stand apart in the source and are kept apart here.

How the values were obtained:
MDA-MB-231 = experiment: MTT cell viability after iridium complex treatment, with or without light (photodynamic cancer cell killing); format: cell-based
Method: (§1) After seeding 1.5×10^4 cells in a 96-well plate, the cells were cultured overnight at 37° C. under 5% carbon dioxide conditions. Afterwards, the cells were treated with the iridium complex and cultured for 2 hours, after which the medium was replaced with fresh medium. After irradiated for 30 seconds with a 1 sun simulator (100 mW/cm2, PEG-L01, Peccell), cells were cultured for an additional 24 hours in a humidified incubator containing 5% carbon dioxide at 37° C. Cell viability was measured using the MTT (tetrazolium salt (3-(4,5-dimethylthiazol-2-yl)-2,5-diphenyltetrazolium bromide)) assay. MTT reagent was added to each well and cultured for 4 hours, and then the formazan crystals produced in the surviving cells were dissolved in DMSO, followed by measurement of the absorbance at 570 nm.
(§2) When the same light (1 sun, 3 J/cm^2) was irradiated to cancer cells administered with the HBrb, B2, and TIr3 iridium complexes as respective photosensitizers, the IC50 values for the respective photo sensitizers were first calculated, and the results are shown in Table 2 below.
(§3) Data indicating the inherent toxicity may be determined by cell viability under conditions without light application (hv−). The experimental results in FIGS. 6A-6F show the cell viability for each cell under conditions where no light was given, where M indicates the cell line MDA-MB-231, A indicates the cell line A549, H indicates the cell line HeLa, C indicates the cell line Caco-2, and P indicates the cell line PANC-1, respectively. FIGS. 6A, 6B, and 6C represent the cell viability when each substance was administered to each cell line for 2 hours, replaced with new media, and then cultured for an additional 24 hours. FIG. 6D is a graph of cell viability when TIr3 and B2 were administered at different concentrations, and at the concentration of a combination of the two (TIr3+B2), to PANC-1, pancreatic cancer cells. […] FIGS. 6E and 6F show the results of identifying the change in the cell viability in the MDA-MB-231 breast cancer cell line under conditions with TIr3 only and the TIr3+B2 combination depending on the presence of light irradiation.

HeLa = experiment: as above; format: cell-based; settings: for IC50: HeLa
Method: as §1, §2, §3

PANC-1 = experiment: as above; format: cell-based; settings: for cell viability (hv−): FIG. 6D, especially 16 and 32 μM
Method: as §1, §2, §3

Caco-2 = experiment: as above; format: cell-based
Method: as §1, §2, §3

A549 = experiment: as above; format: cell-based
Method: as §1, §2, §3

MKN45 = experiment: as above; format: cell-based
Method: as §1, §2

[1] = Dynamic light scattering of Kolliphor HS15 micelles; format: physicochemical; settings: 1 mg/mL in distilled water using 5% Kolliphor HS15
Method: FIGS. 7A-7E illustrates schematic diagrams of micellized synergistic combination (SY) of TIr3 and B2 using Kolliphor HS 15 surfactant (FIG. 7A). As a result, when TIr3, B2, and 0.5 mg/ml TIr3+0.5 mg/ml B2 (SY) materials are dissolved in distilled water at a concentration of 1 mg/mL using 5% Kolliphor HS15, it was found via dynamic light scattering (DLS) that nanoparticles with a size of approximately 10 nm were formed (FIG. 7B). In addition, the size of the SY combination was reidentified through transmission electron microscopy (TEM) (FIG. 7C). […] After four administrations of the drug, the results of hepatotoxicity (alanine aminotransferase, ALT) on the 17th day are shown in FIG. 7E.

[2] = light 1 sun, 3 J/cm^2, read-out: IC50 (hv+)
[3] = no light, read-out: IC50 (hv−), IC50, dark
[4] = light 1 sun, 3 J/cm^2 (100 mW/cm2, 30 s), 2 h treatment, 24 h culture, read-out: IC50 (hv+)

SMILES | IC50 (MDA-MB-231; [2]) | IC50 (MDA-MB-231; [3]) | IC50 (HeLa; [4]) | IC50 (HeLa; [3]) | IC50 (PANC-1; [4]) | cell viability (hv−) (PANC-1; no light) | IC50 (PANC-1; [3]) | IC50 (Caco-2; [2]) | IC50 (Caco-2; [3]) | IC50 (A549; [4]) | IC50 (A549; [3]) | IC50 (MKN45; [2]) | IC50 (MKN45; [3]) | nanoparticle size (DLS) [1] | inherent toxicity of photosensitizer (HeLa; up to 32 μM, no light)
[Cl-].c1ccc(-c2ccc3ccccc3n2)[c]([Ir+][c]2ccccc2-c2ccc3ccccc3n2)c1.c1ccc(-c2ccccn2)nc1 [TIr3] | 0.89 ± 0.02 µM | 7.51 ± 0.84 µM | 1.53 ± 0.07 µM | 8.77 ± 0.73 µM | 3.86 ± 0.18 µM | low cell viability | 10.7 ± 0.39 µM | 0.89 ± 0.09 µM | 7.88 ± 0.13 µM | 3.12 ± 0.2 µM | 19.8 ± 1.99 µM | 0.55 ± 0.06 µM | 16.3 ± 0.17 µM | approximately 10 nm | –
CC(=O)C=C(C)[O][Ir]([c]1c(-c2cc(C(F)(F)F)c3ccccc3n2)sc2ccccc12)[c]1c(-c2cc(C(F)(F)F)c3ccccc3n2)sc2ccccc12 [FIra] | – | – | > 32 µM | – | > 32 µM | – | – | – | – | > 32 µM | – | – | – | – | –
O=C([O][Ir]([c]1c(-c2cc(C(F)(F)F)c3ccccc3n2)sc2ccccc12)[c]1c(-c2cc(C(F)(F)F)c3ccccc3n2)sc2ccccc12)c1ncccc1O [FIrp] | – | – | > 32 µM | – | > 32 µM | – | – | – | – | > 32 µM | – | – | – | – | –
Cc1cc(-c2sc3ccccc3[c]2[Ir]([O]C(=O)c2ncccc2OCCCN2CCOCC2)[c]2c(-c3cc(C)c4ccccc4n3)sc3ccccc23)nc2ccccc12 [Example B2] | 0.89 ± 0.1 µM | > 32 µM | 2.4 ± 0.08 µM | > 32 µM | 11.7 ± 2.02 µM | excellent biocompatibility | > 32 µM | 0.68 ± 0.01 µM | > 32 µM | 3.8 ± 1.3 µM | > 32 µM | 0.86 ± 0.03 µM | > 32 µM | approximately 10 nm | non-toxic
CC(=O)C=C(C)[O][Ir]([c]1c(-c2cc(C)c3ccccc3n2)sc2ccccc12)[c]1c(-c2cc(C)c3ccccc3n2)sc2ccccc12 [HIra] | – | – | > 32 µM | – | > 32 µM | – | – | – | – | > 32 µM | – | – | – | – | –
